From patent US20030078278A1, “Spiropiperidine compounds as ligands for ORL-1 receptor” (Pfizer Inc., priority 2001, published 2003)

How the values were obtained:
[1] = molecular target: T1, human ORL1 receptor (Homo sapiens, UniProt P41146); assay: ORL1-Receptor Binding Assay ([3H]nociceptin, SPA)
T1 construct: expressed in transfected cells; host or cells: HEK-293
Method: ORL1-Receptor Binding Assay:
The human ORL1 receptor transfected HEK-293 cell membranes were incubated for 45 min at 22° C. with 0.4 nM [^3H]nociceptin, 1.0 mg of wheat germ agglutinin-coated SPA beads and various concentrations of test compounds in a final volume of 200 μl of 50 mM HEPES buffer pH 7.4 containing 10 mM MgCl2 and 1 mM EDTA. Non-specific binding was determined by the addition of 1 μM unlabeled nociceptin. After the reaction, the assay plate was centrifuged at 1,000 rpm for 1 min and then the radioactivity was measured by a Liquid Scintillation Counter.
(§1) Each percent […] binding thus obtained is graphed as a function of compound concentration. A sigmoidal curve is used to determine 50% bindings (i.e., IC50 values).

[2] = molecular target: T2, human Mu receptor (Homo sapiens, UniProt P35372); assay: μ-Receptor Binding Assay ([3H]DAMGO, SPA); details: human Mu receptor transfected CHO-K1 cell membranes, 1.0 nM [3H]DAMGO
T2 construct: expressed in transfected cells; host or cells: CHO-K1
T2 sequence (P35372 whole entry): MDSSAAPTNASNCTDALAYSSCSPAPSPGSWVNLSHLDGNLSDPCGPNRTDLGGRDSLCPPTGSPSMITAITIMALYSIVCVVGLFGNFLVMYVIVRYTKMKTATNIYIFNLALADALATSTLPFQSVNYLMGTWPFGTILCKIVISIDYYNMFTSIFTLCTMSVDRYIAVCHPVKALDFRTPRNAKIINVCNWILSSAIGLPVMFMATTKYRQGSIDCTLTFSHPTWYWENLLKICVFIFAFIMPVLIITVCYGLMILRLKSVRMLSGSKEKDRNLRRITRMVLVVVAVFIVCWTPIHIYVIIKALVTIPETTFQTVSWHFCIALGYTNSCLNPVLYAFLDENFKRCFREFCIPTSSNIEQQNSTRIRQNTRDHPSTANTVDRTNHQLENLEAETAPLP
Method: μ-Receptor Binding Assay:
The human Mu receptor transfected CHO-K1 cell membranes were incubated for 45 min at 22° C. with 1.0 nM [^3H]DAMGO, 1.0 mg of wheat germ agglutinin-coated SPA beads and various concentrations of test compounds in a final volume of 200 μl of 50 mM Tris-HCl buffer pH 7.4 containing 5 mM MgCl2. Non-specific binding was determined by the addition of 1 μM unlabeled DAMGO. After the reaction, the assay plate was centrifuged at 1,000 rpm for 1 min and then the radioactivity was measured by a Liquid Scintillation Counter.
as §1

T1 sequence (P41146 whole entry): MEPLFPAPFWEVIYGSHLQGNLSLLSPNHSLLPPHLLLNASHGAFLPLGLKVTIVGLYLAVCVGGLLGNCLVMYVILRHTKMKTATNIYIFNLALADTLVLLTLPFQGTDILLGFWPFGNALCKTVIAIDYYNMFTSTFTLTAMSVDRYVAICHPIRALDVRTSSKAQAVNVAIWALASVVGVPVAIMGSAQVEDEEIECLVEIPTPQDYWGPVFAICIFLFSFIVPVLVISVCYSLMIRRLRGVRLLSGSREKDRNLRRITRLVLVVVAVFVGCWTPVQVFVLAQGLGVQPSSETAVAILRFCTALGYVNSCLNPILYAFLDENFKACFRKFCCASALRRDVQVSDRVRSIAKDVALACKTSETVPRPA

In the case of `O=c1oc2ccccc2n1CCCN1CCC2(CCc3ccccc32)CC1` [Example 9, 2,3-Dihydro-1′-[3-(2-oxo-1,3-benzoxazol-3(2H)-yl)propyl]spiro[1H-indene-1,4′-piperidine]], the IC50 [1] is reported as 0.089 µM, the “selectivity of binding affinity, ORL-1 receptor versus mu-receptor (in words)” value ([1]; comparison of ORL1 and mu binding assays) is reported as “selective affinity for ORL-1 receptor over mu-receptor” and the IC50 [2] is reported as 0.871 µM.
